Data from patent publication US20110178092A1, “HIV-1 Protease Inhibitors” (priority 2005, published 2011).

Legend:
Type in all cases: biochemical
[1] = molecular target: T1, wild type HIV-1 protease (Q7K) (Human immunodeficiency virus type 1 group M subtype B, UniProt P04585, Q495K); experiment: FRET HIV-1 protease inhibition assay, wild type; conditions: for fold higher Ki than the corresponding inhibitor with isobutyl group at P1': cyclopropylmethyl at P1' vs isobutyl analog, wild type; for Ki: wild type HIV-1 protease (Q7K), FRET, in triplicate, read-out: Ki
T1 construct: Wide type HIV-1 protease (Q7K)
Procedure: Biological Evaluation of Selected Compounds of the Invention. HIV protease inhibitor activities were determined by fluorescence resonance energy transfer (FRET) method. […] Inhibitor binding dissociation constant (Ki value) was obtained by nonlinear regression fitting to the plot of initial velocity as a function of inhibitor concentration based on Morrison equation.
(§1) The energy transfer donor (EDANS) and acceptor (DABCYL) were labeled at its two ends respectively to perform FRET. Fluorescence measurements were carried out on PTI fluorescence spectrophotometer (Photon Technology International) at 30° C. Excitation and emission wavelengths were set at 340 nm and 490 nm, respectively. Each reaction was recorded for about 10 min. Wide type HIV-1 protease (Q7K) and its MDR mutants M1 (L10I, G48V, I54V, L63P, V82A), M2 (D30N, L63P, N88D), and M3 (L10I, L63P, A71V, G73S, I84V, L90M) were desalted through PD-10 columns (Amersham Biosciences). Sodium Acetate (20 mM, pH 5) was used as elution buffer. Apparent protease concentrations were around 50 nM estimated by UV spectrophotometer (Shimadzu) at 280 nm. All inhibitors were dissolved in DMSO and diluted to appropriate concentrations. Protease (2 μL) and inhibitor (2 μL) or DMSO were mixed and incubated for 20-30 min at room temperature before initialing substrate cleavage reaction. Throughout this work, 150 μL of 1 μM substrate was used. Substrate buffer is composite of 0.1 M sodium acetate, 1 M sodium chloride, 1 mM ethylenediaminetetraacetic acid (EDTA), 1 mM dithiothreitol (DTT), 2% dimethylsulfoxide (DMSO) and 1 mg/mL bovine serum albumin (BSA) with an adjusted pH 4.7. Inhibitor binding dissociation constant (Ki) was obtained by nonlinear regression fitting (GraFit 5, Erithacus software) to the plot of initial velocity as a function of inhibitor concentrations based on Morrison equation.

[2] = molecular target: HIV-1 protease MDR mutant M1 (L10I, G48V, I54V, L63P, V82A) (Human immunodeficiency virus type 1 group M subtype B, UniProt P04585, G536V/I542V/L498I/L551P/Q495K/V570A); conditions: qualitative statement
From the text: (§2) The mutant variants were selected by examining the Stanford HIV-1 Drug Resistance Database (http://hivdb.stanford.edu) of HIV-1 infected-patient sequences of viral isolates. […] (Wu, T. D. et al. J. Virol. 2003, 77, 4836-4847.) These MDR mutant variants are L10I, G48V, I54V, L63P, V82A (M1), D30N, L63P, N88D (M2), and L10I, L63P, A71V, G73S, I84V, L90M (M3).
as §1

[3] = molecular target: HIV-1 protease MDR mutant M2 (D30N, L63P, N88D) (Human immunodeficiency virus type 1 group M subtype B, UniProt P04585, D518N/L551P/N576D/Q495K); conditions: qualitative statement
From the text: as §2, §1

[4] = molecular target: HIV-1 protease MDR mutant M3 (L10I, L63P, A71V, G73S, I84V, L90M) (Human immunodeficiency virus type 1 group M subtype B, UniProt P04585, A559V/G561S/I572V/L498I/L551P/L578M/Q495K); conditions: qualitative statement
From the text: as §2, §1

COc1cccc(S(=O)(=O)N(CC2CC2)C[C@@H](O)[C@H](Cc2ccccc2)NC(=O)[C@@H]2CN(c3cccc(F)c3)C(=O)O2)c1 [36b, (5S)—N-[(1S,2R)-1-Benzyl-3-[(cyclopropylmethyl)[(3-methoxyphenyl)sulfonyl]amino]-2-hydroxypropyl]-3-(3-fluorophenyl)-2-oxo-oxazolidine-S-carboxamide]
fold higher Ki than the corresponding inhibitor with isobutyl group at P1' [1]: about 3 fold | Ki [1]: 0.257 nM

COc1cccc(S(=O)(=O)N(CC2CC2)C[C@@H](O)[C@H](Cc2ccccc2)NC(=O)[C@@H]2CN(c3ccc(F)c(F)c3)C(=O)O2)c1 [36c, (5S)—N-[(1S,2R)-1-Benzyl-3-[(cyclopropylmethyl)[(3-methoxyphenyl)sulfonyl]amino]-2-hydroxypropyl]-3-(3,4-difluorophenyl)-2-oxo-oxazolidine-S-carboxamide]
fold higher Ki than the corresponding inhibitor with isobutyl group at P1' [1]: ~9 fold | Ki [1]: 0.58 nM

COc1cccc(S(=O)(=O)N(CC2CC2)C[C@@H](O)[C@H](Cc2ccccc2)NC(=O)[C@@H]2CN(c3ccc(C(C)=O)cc3)C(=O)O2)c1 [36f, (5S)-3-(4-Acetylphenyl)-N-[(1S,2R)-1-Benzyl-3-[(cyclopropylmethyl)[(3-methoxy-phenyl)sulfonyl]amino]-2-hydroxypropyl]-2-oxo-oxazolidine-S-carboxamide]
fold higher Ki than the corresponding inhibitor with isobutyl group at P1' [1]: ~200 fold | Ki [1]: 0.08 nM

Cc1cccc(C)c1OCC(=O)N[C@@H](Cc1ccccc1)[C@@H](O)C[C@H](Cc1ccccc1)NC(=O)[C@H](C(C)C)N1CCCNC1=O [LPV, lopinavir]
activity against M1 mutant relative to wild type (in words) [2]: significantly loses activity | activity against M2 mutant relative to wild type (in words) [3]: retains high affinity | activity against M3 mutant relative to wild type (in words) [4]: significantly loses activity

CC(C)CN(C[C@@H](O)[C@H](Cc1ccccc1)NC(=O)O[C@H]1CCOC1)S(=O)(=O)c1ccc(N)cc1 [amprenavir, reference compound]
inhibitory activity against wild type HIV-1 protease (in words) ([1]; wild type HIV-1 protease, qualitative statement): Ki value for wild type is also relatively high
